# Measured values reported in patent US20020198158A1, “Use of a cyclic ether for the preparation of medicaments affecting glucose tolerance” (priority 2000, published 2002).
# “Also recorded” adds a separate entry of the source.
# How the values were obtained:
# NMRI mice [1] = test: Intravenous glucose tolerance test; type: in vivo; conditions: for AUCinsulin (area under the insulin curve during the 50 min study period): anesthetized mice
# Description: (§1) Non-fasted NMRI mice (Bomholdtgaard Breeding and Research Center, Ry, Denmark), weighing 20-25 g are used throughout the study. The animals are fed a standard pellet diet and tap water ad libitum.
# The mice are anesthetized with an intraperitoneal injection of midazolam (Dormicum^R, Hoffman-La-Roche, Basel, Switzerland, 0.4 mg/mouse) and a combination of fluanison (0.9 mg/mouse) and fentanyl (0.02 mg/mouse; Hypnorm^R, Janssen, Beerse, Belgium). Thereafter, a blood sample is taken from the retrobulbar, intraorbital, capillary plexus in heparinized tubes, whereafter D-glucose (British Drug Houses, Poole, UK; 1 g/kg) is injected rapidly intravenously either alone or together with 1,5AnFru (Danisco Ltd, Copenhagen, Denmark; 0.2 or 1 g/kg); in one series of experiments, 1,5AnFru is given alone (1 g/kg). The volume load is 10 μl/g body weight. New blood samples are taken after 1, 5, 10, 20, 30 and 50 minutes. In another set of experiments, 1,5AnFru is given by gastric gavage (0.2 g/kg) five minutes before the zero blood sample taken immediately before the intravenous injection of glucose as above. Blood samples are taken as above. Following immediate centrifugation at 4° C., plasma is separated and stored at −20° C. or until analysis.
# (§2) Plasma insulin is determined radioimmunochemically with the use of a guinea pig anti-rat insulin antibody, ^125I-labelled porcine insulin as tracer and rat insulin as standard (Linco Research, St Charles, Mo., USA). Free and bound radioactivity is separated by use of an anti-IgG (goat anti-guinea pig) antibody (Linco). The sensitivity of the assay is 12 pmol/l and the coefficiency of variation is less than 3% at both low and high levels. Plasma glucose is determined with the glucose oxidase method. Plasma GLP-1 is measured by a radioimmunoassay after extraction of plasma samples with ethanol. 400 μl 0.05 mol/l sodium phosphate buffer, pH 7.5, containing 6% albumin and 0.1 mol/l NaCl is added to 100 μl mouse plasma on ice and mixed well. The mixture is then extracted with 70% ethanol (vol/vol, final dilution), and after vacuum centrifugation the residue is reconstituted in assay buffer and assayed as previously described (Ørskov et al., 1994). […] The sensitivity using this procedure is 5 pmol/l, and the intra-assay coefficient of variation is 10%.
# (§3) Means±SEM are shown. Area under the curve for plasma insulin levels (AUCisulin) is calculated by the trapezoid rule. Statistical analyses are performed with the SPSS for Windows system. Statistical comparisons between groups are performed with Students t-test.
# isolated mouse islets = test: Insulin secretion in vitro from isolated islets; type: cell-based; conditions: 60 min incubation
# Description: Pancreatic islets are isolated from four mice with the collagenase isolation technique. In brief, the pancreas is filled retrogradely through the pancreatic duct with 3 ml of Hank's Balanced Salt Solution (Sigma), supplemented with 0.3 mg/ml of Collagenase P (activity 1.86 U/mg; Boehringer Mannheim Gmbh, Mannheim, Germany). The pancreas is subsequently removed and incubated in the same solution for 20 min at 37° C. After rinsing, the islets are handpicked under a stereomicroscope and incubated overnight in RPMI 1640 medium supplemented with 10% fetal calf serum, 2.05 mmol/l L-glutamine, 2.5 μg/ml amphotericin B (GIBCO BRL, Paisley, Scotland), 100 lU/ml penicillin and 100 μg/ml streptomycin (Biol Ind, Beit Haemek, Israel) at 37° C. in humidified air equilibrated with 5% CO2. […]
# Plasma insulin is determined radioimmunochemically with the use of a guinea pig anti-rat insulin antibody, ^125I-labelled porcine insulin as tracer and rat insulin as standard (Linco Research, St Charles, Mo., USA). Free and bound radioactivity is separated by use of an anti-IgG (goat anti-guinea pig) antibody (Linco). […] Plasma glucose is determined with the glucose oxidase method. Plasma GLP-1 is measured by a radioimmunoassay after extraction of plasma samples with ethanol. […]
# NMRI mice [2] = test: Gastric glucose tolerance test; type: in vivo; conditions: gastric gavage glucose 150 mg/mouse with 1,5AnFru 150 mg/mouse
# Description: as §1
# (§4) The mice are fasted overnight and anesthetized as above. After induction of anesthesia, D-glucose (150 mg/mouse in 0.5 ml) is administered alone or together with 1,5AnFru (150 mg/mouse) through a gavage tube (outer diameter 1.2 mm) placed in the stomach. Blood samples are taken after 15, 30, 45, 60, 90 and 120 minutes and treated as above.
# as §2, §3
# GLP-1 = test: Plasma GLP-1 after gastric gavage; type: in vivo, mice; conditions: P<0.05
# Description: as §1, §4
# Plasma insulin is determined radioimmunochemically with the use of a guinea pig anti-rat insulin antibody, ^125I-labelled porcine insulin as tracer and rat insulin as standard (Linco Research, St Charles, Mo., USA). Free and bound radioactivity is separated by use of an anti-IgG (goat anti-guinea pig) antibody (Linco). The sensitivity of the assay is 12 pmol/l and the coefficiency of variation is less than 3% at both low and high levels. Plasma glucose is determined with the glucose oxidase method. Plasma GLP-1 is measured by a radioimmunoassay after extraction of plasma samples with ethanol. 400 μl 0.05 mol/l sodium phosphate buffer, pH 7.5, containing 6% albumin and 0.1 mol/l NaCl is added to 100 μl mouse plasma on ice and mixed well. […]
structure (smiles),measurement,setting,value
"O=C1CO[C@H](CO)[C@@H](O)[C@@H]1O [1,5AnFru, 1,5-anhydro-D-fructose]",glucose-stimulated insulin secretion (insulin response to iv glucose),"NMRI mice [1]; 1,5AnFru 1 g/kg iv together with glucose 1 g/kg iv",inhibits
same,basal plasma levels of insulin or glucose,"NMRI mice [1]; 1,5AnFru given alone iv, 1 g/kg",not affected
same,AUCinsulin (area under the insulin curve during the 50 min study period),"NMRI mice [1]; iv glucose 1 g/kg together with 1,5AnFru 0.2 g/kg iv",14.6±1.9 nmol/l×50 min
same,AUCinsulin (area under the insulin curve during the 50 min study period),"NMRI mice [1]; iv glucose 1 g/kg together with 1,5AnFru 1 g/kg iv, P=0.021 vs glucose alone",8.6±1.9 nmol/l×50 min
same,glucose elimination after intravenous glucose administration,"NMRI mice [1]; iv glucose 1 g/kg with 1,5AnFru iv, 50 min study period",not affected; also recorded: without affecting
same,glucose-stimulated insulin secretion,"isolated mouse islets; 16.7 mmol/l 1,5AnFru together with 11.1 mmol/l glucose",inhibition of insulin secretion is observed; also recorded: inhibits
same,glucose-stimulated insulin secretion,"isolated mouse islets; 1,5AnFru at 11.1 mmol/l or below",does not affect
same,AUCinsulin during 60 min,NMRI mice [2]; P=0.018 vs control,32.9 ± 2.6 nmol/L
same,AUCinsulin during the first 60 min after administration,NMRI mice [2]; P=0.018 vs controls,32.9±2.6 nmol/l in 60 min
same,60 min plasma glucose value,NMRI mice [2]; P=0.021 vs controls,15.5 ± 1.6 mmol/L
same,"plasma GLP-1, 30 min value","GLP-1; 30 min after gastric gavage of glucose 150 mg/mouse with 1,5AnFru 150 mg/mouse",78.2 ± 8.6 pmol/L
same,"plasma GLP-1, 60 min value","GLP-1; 60 min after gastric gavage of glucose 150 mg/mouse with 1,5AnFru 150 mg/mouse",28.8 ± 3.8 pmol/L
